Results from patent publication US20140088102A1, “(ALPHA-SUBSTITUTED CYCLOALKYLAMINO AND HETEROCYCLYLAMINO) PYRIMIDINYL AND 1,3,5-TRIAZINYL BENZIMIDAZOLES, PHARMACEUTICAL COMPOSITIONS THEREOF, AND THEIR USE IN TREATING PROLIFERATIVE DISEASES” (MEI PHARMA, INC., priority 2011, published 2014).

How the values were obtained:
Assay type in all cases: biochemical
p110β = p110β (Homo sapiens, UniProt P42338); test: Luciferase-based luminescence assay, p110β
p110δ = molecular target: T1, p110δ (Homo sapiens, UniProt O00329); test: Luciferase-based luminescence assay (Kinase GLO), PI3K delta; settings: for IC50: 6.86 nM enzyme, 50 μM PIP2, 25 μM ATP, 2 hours; for α/δ ratio: ratio of IC50 against PI3Kα over IC50 against PI3Kδ
T1 construct: purchased Millipore, Billerica, Mass., USA
Procedure: (§1) PI3K catalyzes the conversion of phosphatidylinositol-4,5-bisphosphate (PIP2) and ATP to phosphatidylinositol-3,4,5-trisphosphate (PIP3) and ADP. PI3K enzymatic activity was determined by measuring the amount of ATP consumed following the kinase reaction using a luciferase-based luminescence assay (Kinase GLO®, Promega Corp., Madison, Wis., USA) in a reaction buffer. The reaction buffer contained 50 mM HEPES, pH 7.5, 3 mM MgCl2, 1 mM EGTA, 100 mM NaCl, 0.03% CHAPS, and 2 mM DTT. Compounds for testing were dissolved and serially diluted in 100% DMSO (total of 10 concentrations), and then diluted 1:25 in the reaction buffer. PI3K enzyme solutions were prepared by diluting PI3K alpha (Invitrogen Corp., Carlsbad, Calif., USA) or PI3K delta (Millipore, Billerica, Mass., USA) in the reaction buffer to 4× the final assay concentration. The final concentrations of enzymes were 1.65 nM and 6.86 nM for PI3K alpha and PI3K delta, respectively. A substrate solution was prepared by mixing PIP2 and ATP in reaction buffer at 2× the final assay concentration. The final concentrations were 50 μM and 25 μM for PIP2 and ATP, respectively. To individual wells of white low volume 384-well assay plates were added 2.5 μl each of the compound and kinase mixtures, followed by shaking. The reactions were started by adding 5 μl of substrate mixture per well and shaking. The assay plates were covered and reactions were allowed to proceed for 1 hour (PI3K alpha) or 2 hours (PI3K delta), after which 10 μl of Kinase GLO® reagent was added. The plates were briefly centrifuged and incubated for 10 minutes, after which luminescence was measured using a FlexStation plate reader (Molecular Devices, Sunnyvale, Calif., USA). IC50 values were determined by curve fitting using Graphpad Prism software (Graphpad Software, La Jolla, Calif., USA).

p110α = molecular target: T2, p110α (Homo sapiens, UniProt P42336); test: Luciferase-based luminescence assay (Kinase GLO), PI3K alpha; settings: 1.65 nM enzyme, 50 μM PIP2, 25 μM ATP, 1 hour
T2 construct: purchased Invitrogen Corp., Carlsbad, Calif., USA
Procedure: as §1

mTOR = mTOR (Homo sapiens, UniProt P42345); test: Luciferase-based luminescence assay, mTOR
p110γ = p110γ (Homo sapiens, UniProt P48736); test: Luciferase-based luminescence assay, p110γ
p110γ, sequence (P48736 whole entry, species assumed): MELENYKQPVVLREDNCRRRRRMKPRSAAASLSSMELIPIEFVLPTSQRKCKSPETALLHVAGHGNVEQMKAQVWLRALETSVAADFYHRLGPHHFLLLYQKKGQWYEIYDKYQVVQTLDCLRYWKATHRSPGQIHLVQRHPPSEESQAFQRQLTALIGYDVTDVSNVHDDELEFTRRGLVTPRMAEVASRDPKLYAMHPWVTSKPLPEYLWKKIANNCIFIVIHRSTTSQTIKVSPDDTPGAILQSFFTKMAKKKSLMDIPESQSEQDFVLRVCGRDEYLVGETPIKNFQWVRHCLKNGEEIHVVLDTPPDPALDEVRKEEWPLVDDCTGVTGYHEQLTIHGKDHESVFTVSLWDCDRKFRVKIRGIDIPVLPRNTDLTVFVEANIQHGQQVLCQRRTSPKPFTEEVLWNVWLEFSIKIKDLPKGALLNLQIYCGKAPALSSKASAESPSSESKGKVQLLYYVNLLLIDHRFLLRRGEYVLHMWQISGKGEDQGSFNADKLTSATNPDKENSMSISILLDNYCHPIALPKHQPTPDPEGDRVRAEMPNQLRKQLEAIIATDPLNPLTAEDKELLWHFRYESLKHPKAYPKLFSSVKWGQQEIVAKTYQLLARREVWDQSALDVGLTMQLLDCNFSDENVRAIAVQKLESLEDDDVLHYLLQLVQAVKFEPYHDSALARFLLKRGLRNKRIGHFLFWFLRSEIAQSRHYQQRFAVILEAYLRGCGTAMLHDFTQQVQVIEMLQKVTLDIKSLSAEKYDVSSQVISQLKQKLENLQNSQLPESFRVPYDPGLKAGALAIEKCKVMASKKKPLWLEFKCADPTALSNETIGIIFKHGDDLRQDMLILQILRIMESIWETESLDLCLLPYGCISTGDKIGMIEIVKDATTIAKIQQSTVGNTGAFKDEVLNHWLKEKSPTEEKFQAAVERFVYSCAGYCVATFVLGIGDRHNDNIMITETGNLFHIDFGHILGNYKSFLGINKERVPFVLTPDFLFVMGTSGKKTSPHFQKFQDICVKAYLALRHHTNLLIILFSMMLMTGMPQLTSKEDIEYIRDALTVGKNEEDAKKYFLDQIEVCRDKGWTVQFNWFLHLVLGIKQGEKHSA

p110β, sequence (P42338 whole entry, species assumed): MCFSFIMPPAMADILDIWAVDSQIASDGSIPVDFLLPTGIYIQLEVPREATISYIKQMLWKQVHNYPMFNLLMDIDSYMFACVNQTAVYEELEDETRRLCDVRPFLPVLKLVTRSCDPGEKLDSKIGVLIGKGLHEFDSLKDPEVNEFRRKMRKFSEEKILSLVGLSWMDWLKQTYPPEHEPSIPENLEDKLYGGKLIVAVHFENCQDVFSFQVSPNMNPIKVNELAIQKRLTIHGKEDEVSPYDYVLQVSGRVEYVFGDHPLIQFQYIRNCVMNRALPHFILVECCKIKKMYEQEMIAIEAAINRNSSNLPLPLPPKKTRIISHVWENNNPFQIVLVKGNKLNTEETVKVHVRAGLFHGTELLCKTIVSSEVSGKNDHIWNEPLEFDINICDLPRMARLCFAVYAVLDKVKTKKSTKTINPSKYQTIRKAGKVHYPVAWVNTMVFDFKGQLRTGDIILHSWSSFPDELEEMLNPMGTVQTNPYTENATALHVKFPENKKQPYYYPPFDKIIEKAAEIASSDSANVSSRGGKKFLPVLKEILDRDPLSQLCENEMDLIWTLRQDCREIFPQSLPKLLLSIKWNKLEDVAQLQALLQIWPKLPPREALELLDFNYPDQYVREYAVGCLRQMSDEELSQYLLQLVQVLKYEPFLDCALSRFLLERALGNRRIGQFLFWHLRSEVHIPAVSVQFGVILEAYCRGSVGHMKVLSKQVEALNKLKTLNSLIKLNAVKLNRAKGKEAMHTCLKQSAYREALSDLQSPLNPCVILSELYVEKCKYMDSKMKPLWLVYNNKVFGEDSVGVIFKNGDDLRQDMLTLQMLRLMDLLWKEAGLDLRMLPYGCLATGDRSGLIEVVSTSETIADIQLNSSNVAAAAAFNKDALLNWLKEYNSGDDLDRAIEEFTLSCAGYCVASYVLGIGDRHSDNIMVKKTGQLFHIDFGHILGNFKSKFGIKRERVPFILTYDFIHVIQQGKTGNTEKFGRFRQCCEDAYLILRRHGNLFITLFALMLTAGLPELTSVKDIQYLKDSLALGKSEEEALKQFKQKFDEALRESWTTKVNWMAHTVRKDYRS
p110β, sequence (P27986 whole entry partner, species assumed): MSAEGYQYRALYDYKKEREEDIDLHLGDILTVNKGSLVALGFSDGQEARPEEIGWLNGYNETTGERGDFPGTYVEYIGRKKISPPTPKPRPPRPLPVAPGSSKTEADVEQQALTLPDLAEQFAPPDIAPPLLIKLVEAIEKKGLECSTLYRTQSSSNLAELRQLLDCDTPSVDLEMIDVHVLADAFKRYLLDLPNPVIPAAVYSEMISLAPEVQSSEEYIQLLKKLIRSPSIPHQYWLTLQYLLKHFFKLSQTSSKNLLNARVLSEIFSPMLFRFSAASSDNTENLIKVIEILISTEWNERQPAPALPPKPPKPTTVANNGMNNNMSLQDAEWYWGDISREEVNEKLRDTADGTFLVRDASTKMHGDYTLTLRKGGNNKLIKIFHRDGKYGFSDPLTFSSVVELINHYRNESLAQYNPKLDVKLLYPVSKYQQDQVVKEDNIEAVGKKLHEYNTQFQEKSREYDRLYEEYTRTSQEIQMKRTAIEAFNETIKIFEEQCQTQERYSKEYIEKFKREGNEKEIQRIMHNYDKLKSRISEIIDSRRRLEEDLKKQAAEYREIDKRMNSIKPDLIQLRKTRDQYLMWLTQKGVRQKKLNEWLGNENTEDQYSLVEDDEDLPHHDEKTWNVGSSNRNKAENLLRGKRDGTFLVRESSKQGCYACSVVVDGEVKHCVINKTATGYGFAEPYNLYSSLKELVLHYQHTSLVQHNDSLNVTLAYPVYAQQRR
T2 sequence (P42336 whole entry): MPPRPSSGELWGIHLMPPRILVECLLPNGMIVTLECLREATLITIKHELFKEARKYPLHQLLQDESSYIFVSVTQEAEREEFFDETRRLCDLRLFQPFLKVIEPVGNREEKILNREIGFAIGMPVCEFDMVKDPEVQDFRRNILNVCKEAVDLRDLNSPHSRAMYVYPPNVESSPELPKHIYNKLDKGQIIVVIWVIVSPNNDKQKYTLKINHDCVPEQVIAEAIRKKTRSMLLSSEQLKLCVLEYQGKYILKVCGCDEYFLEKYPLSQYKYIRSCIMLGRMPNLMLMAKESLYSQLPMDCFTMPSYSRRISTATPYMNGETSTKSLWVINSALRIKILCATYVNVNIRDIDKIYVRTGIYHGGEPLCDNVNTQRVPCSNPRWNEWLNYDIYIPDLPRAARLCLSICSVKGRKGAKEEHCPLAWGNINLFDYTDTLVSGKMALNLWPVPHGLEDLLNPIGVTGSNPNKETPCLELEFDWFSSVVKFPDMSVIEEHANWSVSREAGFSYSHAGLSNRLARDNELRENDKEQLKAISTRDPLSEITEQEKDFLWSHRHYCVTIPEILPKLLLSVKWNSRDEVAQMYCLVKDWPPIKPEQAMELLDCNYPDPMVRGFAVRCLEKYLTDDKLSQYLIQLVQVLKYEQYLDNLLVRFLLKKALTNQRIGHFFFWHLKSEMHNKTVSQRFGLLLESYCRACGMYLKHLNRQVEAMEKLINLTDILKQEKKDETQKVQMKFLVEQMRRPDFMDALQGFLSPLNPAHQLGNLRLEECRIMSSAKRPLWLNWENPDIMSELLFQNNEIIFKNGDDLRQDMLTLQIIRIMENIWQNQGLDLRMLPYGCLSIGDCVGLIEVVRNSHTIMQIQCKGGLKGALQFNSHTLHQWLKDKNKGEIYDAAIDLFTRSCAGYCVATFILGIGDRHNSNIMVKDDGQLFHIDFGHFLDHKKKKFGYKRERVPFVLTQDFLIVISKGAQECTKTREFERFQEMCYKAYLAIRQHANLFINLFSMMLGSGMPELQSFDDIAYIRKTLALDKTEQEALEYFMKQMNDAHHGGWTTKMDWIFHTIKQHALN
T2 sequence (P27986 whole entry partner): as the sequence (P27986 whole entry partner, species assumed) above
T1 sequence (O00329 whole entry): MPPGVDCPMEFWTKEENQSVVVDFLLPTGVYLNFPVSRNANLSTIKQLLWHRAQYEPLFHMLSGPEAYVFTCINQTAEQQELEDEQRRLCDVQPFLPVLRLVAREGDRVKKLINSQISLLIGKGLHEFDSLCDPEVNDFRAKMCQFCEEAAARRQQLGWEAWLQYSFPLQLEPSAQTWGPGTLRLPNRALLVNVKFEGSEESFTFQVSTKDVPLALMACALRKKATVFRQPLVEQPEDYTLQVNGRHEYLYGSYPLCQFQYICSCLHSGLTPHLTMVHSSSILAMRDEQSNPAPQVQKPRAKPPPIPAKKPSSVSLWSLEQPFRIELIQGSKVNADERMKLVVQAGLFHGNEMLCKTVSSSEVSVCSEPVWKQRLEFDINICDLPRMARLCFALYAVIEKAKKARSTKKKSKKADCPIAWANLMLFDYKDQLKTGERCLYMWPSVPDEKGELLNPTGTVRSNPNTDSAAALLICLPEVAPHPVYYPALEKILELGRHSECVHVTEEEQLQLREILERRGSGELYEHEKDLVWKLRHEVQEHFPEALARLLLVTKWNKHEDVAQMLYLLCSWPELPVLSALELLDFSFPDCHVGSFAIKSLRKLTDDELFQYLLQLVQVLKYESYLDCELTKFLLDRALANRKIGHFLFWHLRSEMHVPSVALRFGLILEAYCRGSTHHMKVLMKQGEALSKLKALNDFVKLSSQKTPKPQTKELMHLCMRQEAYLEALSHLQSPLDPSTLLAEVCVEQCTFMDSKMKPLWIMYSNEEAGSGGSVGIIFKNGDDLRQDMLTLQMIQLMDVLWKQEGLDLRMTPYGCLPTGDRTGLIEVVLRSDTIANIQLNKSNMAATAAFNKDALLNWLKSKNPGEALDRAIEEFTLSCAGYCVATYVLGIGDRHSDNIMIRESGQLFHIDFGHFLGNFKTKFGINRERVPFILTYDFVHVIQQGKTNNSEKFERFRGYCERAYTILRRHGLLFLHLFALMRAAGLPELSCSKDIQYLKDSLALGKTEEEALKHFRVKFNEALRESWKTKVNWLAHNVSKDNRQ
T1 sequence (P27986 whole entry partner): as the sequence (P27986 whole entry partner, species assumed) above

IC50 (p110β) | IC50 (p110δ) | IC50 (p110α) | IC50 (mTOR) | IC50 (p110γ) | SMILES | α/δ ratio (p110δ)
> 500 nM | ≤ 100 nM | > 500 nM | > 500 nM | > 500 nM | FC(F)c1nc2ccccc2n1-c1nc(NC2(Cc3ccccc3)CC2)nc(N2CCOCC2)n1 [Compound A5, N-(1-benzylcyclopropyl)-4-(2-(difluoromethyl)-1H-benzo[d]imidazol-1-yl)-6-morpholino-1,3,5-triazin-2-amine] | A′ (A′ represents a ratio of greater than 8)
100 to 200 nM | ≤ 100 nM | > 500 nM | > 500 nM | 200 to 500 nM | FC(F)c1nc2ccccc2n1-c1nc(NC2(Cc3ccccc3)CCCC2)nc(N2CCOCC2)n1 [Compound A7, N-(1-benzylcyclopentyl)-4-(2-(difluoromethyl)-1H-benzo[d]imidazol-1-yl)-6-morpholino-1,3,5-triazin-2-amine] | A′ (A′ represents a ratio of greater than 8)
≤ 100 nM | ≤ 100 nM | > 500 nM | > 500 nM | 200 to 500 nM | FC(F)c1nc2ccccc2n1-c1nc(NC2(Cc3ccccc3)CCC2)nc(N2CCOCC2)n1 [Compound A11, 4-(2-(difluoromethyl)-1H-benzo[d]imidazol-1-yl)-N-(1-benzylcyclobutyl)-6-morpholino-1,3,5-triazin-2-amine] | A′ (A′ represents a ratio of greater than 8)

More lines, now with the values behind:

SMILES | IC50 (p110β) | IC50 (p110δ) | IC50 (p110α) | IC50 (mTOR) | IC50 (p110γ) | α/δ ratio (p110δ)
FC(F)c1nc2ccccc2n1-c1nc(NC2(Cc3ccc(Br)cc3)CCCCC2)nc(N2CCOCC2)n1 [Compound A6, N-(1-(4-bromobenzyl)cyclohexyl)-4-(2-(difluoromethyl)-1H-benzo[d]imidazol-1-yl)-6-morpholino-1,3,5-triazin-2-amine] | > 500 nM | > 500 nM | > 500 nM | > 500 nM | > 500 nM | B′ (B′ represents a ratio of no less than 4 but no greater than 8)
FC(F)c1nc2ccccc2n1-c1nc(NC2(Cc3ccccc3Cl)CC2)nc(N2CCOCC2)n1 [Compound A10, N-(1-(2-chlorobenzyl)cyclopropyl)-4-(2-(difluoromethyl)-1H-benzo[d]imidazol-1-yl)-6-morpholino-1,3,5-triazin-2-amine] | > 500 nM | 200 to 500 nM | > 500 nM | > 500 nM | > 500 nM | A′ (A′ represents a ratio of greater than 8)
FC(F)c1nc2ccccc2n1-c1nc(NC2(c3ccccc3)CCCC2)nc(N2CCOCC2)n1 [Compound A3, 4-(2-(difluoromethyl)-1H-benzo[d]imidazol-1-yl)-6-morpholino-N-(1-phenylcyclopentyl)-1,3,5-triazin-2-amine] | – | > 500 nM | > 500 nM | – | – | A′ (A′ represents a ratio of greater than 8)
Cc1ccccc1CC1(Nc2nc(N3CCOCC3)nc(-n3c(C(F)F)nc4ccccc43)n2)CC1 [Compound A8, 4-(2-(difluoromethyl)-1H-benzo[d]imidazol-1-yl)-N-(1-(2-methylbenzyl)cyclopropyl)-6-morpholino-1,3,5-triazin-2-amine] | > 500 nM | 100 to 200 nM | > 500 nM | > 500 nM | > 500 nM | B′ (B′ represents a ratio of no less than 4 but no greater than 8)
FC(F)c1nc2ccccc2n1-c1nc(NC2(c3ccccc3)CCCCC2)nc(N2CCOCC2)n1 [Compound A4, 4-(2-(difluoromethyl)-1H-benzo[d]imidazol-1-yl)-6-morpholino-N-(1-phenylcyclohexyl)-1,3,5-triazin-2-amine] | – | 200 to 500 nM | > 500 nM | – | – | A′ (A′ represents a ratio of greater than 8)
FC(F)c1nc2ccccc2n1-c1nc(NCc2ccccc2)nc(N2CCOCC2)n1 [Ref. 1, N-benzyl-4-(2-(difluoromethyl)-1H-benzo[d]imidazol-1-yl)-6-morpholino-1,3,5-triazin-2-amine, reference compound] | – | 100 to 200 nM | 100 to 200 nM | – | – | D′ (D′ represents a ratio of no greater than 2)
FC(F)c1nc2ccccc2n1-c1nc(NC2(c3ccccc3)CC2)nc(N2CCOCC2)n1 [Compound A1, 4-(2-(difluoromethyl)-1H-benzo[d]imidazol-1-yl)-6-morpholino-N-(1-phenylcyclopropyl)-1,3,5-triazin-2-amine] | – | ≤ 100 nM | 200 to 500 nM | – | – | B′ (B′ represents a ratio of no less than 4 but no greater than 8)
